Data published in DBAASP.
In brackets after ≈: the same amount, converted by molar mass.

Tests used:
Assay in all cases: ≥ marks a high value that may be exact or a test limit, other limits are often not marked, values filed in µg/mL are converted to µM
[1] = test system: Escherichia coli DH5alpha
[2] = test system: Franconibacter helveticus DSM 18396
[3] = test system: Bacillus subtilis DSM 347
[4] = test system: Kocuria rhizophila DSM 348
[5] = test system: Pseudomonas aeruginosa PA006
[6] = test system: Staphylococcus aureus ATCC 29313
[7] = test system: Pseudomonas aeruginosa Pa1-SA2
[8] = test system: Pseudomonas aeruginosa PAO1
[9] = test system: Salmonella enterica subsp. enterica serovar Typhimurium ATCC 14028
[10] = test system: Escherichia coli ATCC 25922
[11] = test system: Klebsiella pneumoniae ATCC 700603
[12] = test system: Pseudomonas aeruginosa Pa4-SA2
[13] = test system: Pseudomonas aeruginosa ATCC 27853
[14] = test system: Pseudomonas aeruginosa ATCC 9027
Candida albicans = test system: Candida albicans
[15] = test system: Mycobacterium tuberculosis H37Rv
Candida glabrata = test system: Candida glabrata
[16] = test system: Mycobacterium tuberculosis
[17] = test system: Staphylococcus aureus ATCC 25923
Streptococcus agalactiae = test system: Streptococcus agalactiae
[18] = test system: Pseudomonas aeruginosa ATCC 13388
[19] = test system: Staphylococcus aureus ATCC 6538
[20] = test system: Klebsiella pneumoniae ATCC 10031
[21] = test system: Escherichia coli ATCC 11219
[22] = test system: Enterococcus faecalis ATCC 29212
[23] = test system: Candida albicans ATCC 90028
[24] = test system: Staphylococcus aureus IS37#
[25] = test system: Pseudomonas aeruginosa CMCCB 1010
[26] = test system: Candida parapsilosis ATCC 22019
Escherichia coli IS37# = test system: Escherichia coli IS37#
[27] = test system: Candida albicans ATCC 2002
[28] = test system: Staphylococcus aureus IS10#
Shigella dysenteriae = test system: Shigella dysenteriae
[29] = test system: Enterobacter cloacae ATCC 13047
Escherichia coli IS117# = test system: Escherichia coli IS117#
[30] = test system: Escherichia coli K12 MG1655
[31] = test system: Staphylococcus aureus 68 HER 1049
[32] = test system: Escherichia coli NEB5alpha
[33] = test system: Bacillus subtilis ATCC 6051

**Q.** CC[C@H](C)[C@H](NC(=O)CN)C(=O)NCC(=O)N[C@@H](CCCCN)C(=O)N[C@@H](Cc1ccccc1)C(=O)N[C@@H](CC(C)C)C(=O)N[C@@H](Cc1cnc[nH]1)C(=O)N[C@@H](CO)C(=O)N[C@@H](C)C(=O)N[C@@H](CCCCN)C(=O)N[C@@H](CCCCN)C(=O)N[C@@H](Cc1ccccc1)C(=O)NCC(=O)N[C@@H](CCCCN)C(=O)N[C@@H](C)C(=O)N[C@@H](Cc1ccccc1)C(=O)N[C@@H](C)C(=O)NCC(=O)N[C@@H](CCC(=O)O)C(=O)N[C@H](C(=O)N[C@@H](CCSC)C(=O)N[C@@H](CC(N)=O)C(=O)N[C@@H](CO)C(=O)O)[C@@H](C)CC [GIGKFLHSAKKFGKAFAGEIMNS] was tested. Which MIC [1] did it give?
**A.** ≥ 64 µM

**Q.** What about the MIC [2] of the same compound?
**A.** ≥ 64 µM

**Q.** What about the MIC [3] of the same compound?
**A.** 8 µM (≈ 19.5 µg/mL)

**Q.** What about the MIC [4] of the same compound?
**A.** ≥ 64 µM

**Q.** CC[C@H](C)[C@H](NC(=O)[C@H](CCCCN)NC(=O)CNC(=O)[C@@H](NC(=O)[C@H](C)NC(=O)[C@H](Cc1cnc[nH]1)NC(=O)[C@H](C)NC(=O)[C@@H](NC(=O)[C@H](CC(C)C)NC(=O)[C@H](CCC(N)=O)NC(=O)[C@H](CCCCN)NC(=O)CNC(=O)[C@H](C)NC(=O)[C@H](CC(=O)O)NC(=O)[C@H](CCCCN)NC(=O)[C@@H](NC(=O)[C@@H](NC(=O)[C@H](CC(=O)O)NC(=O)[C@H](Cc1ccccc1)NC(=O)[C@@H](NC(=O)CN)C(C)C)[C@@H](C)CC)[C@@H](C)CC)C(C)C)[C@@H](C)O)C(=O)N[C@@H](C)C(=O)N[C@@H](CCC(=O)O)C(=O)N[C@@H](CCCCN)C(=O)N[C@H](C(N)=O)C(C)C [GVFDIIKDAGKQLVAHATGKIAEKV] was tested. Which MIC [5] did it give?
**A.** 6.13 µM (≈ 16 µg/mL)

**Q.** What about the MIC [6] of the same compound?
**A.** ≥ 307 µM

**Q.** And the MIC [7]?
**A.** ≥ 98.1 µM

**Q.** And the MIC [8]?
**A.** 196 µM (≈ 512 µg/mL)

**Q.** What about the MIC [9] of the same compound?
**A.** > 307 µM

**Q.** And the MIC [10]?
**A.** > 307 µM

**Q.** What about the MIC [11] of the same compound?
**A.** > 307 µM

**Q.** And the MIC [12]?
**A.** ≥ 49.1 µM

**Q.** And the MIC [13]?
**A.** 392 µM (≈ 1020 µg/mL)

**Q.** Which MIC [14] does the source give for CC[C@H](C)[C@H](NC(=O)[C@H](CC(C)C)NC(=O)[C@H](CO)NC(=O)[C@@H]1CCCN1C(=O)[C@@H](NC(=O)[C@H](C)NC(=O)[C@H](CCCCN)NC(=O)[C@H](CCSC)NC(=O)[C@H](C)NC(=O)[C@H](CC(C)C)NC(=O)[C@H](CCCCN)NC(=O)CNC(=O)[C@H](CC(C)C)NC(=O)[C@H](Cc1ccccc1)NC(=O)CNC(=O)[C@H](Cc1c[nH]c2ccccc12)NC(=O)[C@@H](N)Cc1ccccc1)C(C)C)C(=O)NCC(=O)NCC(=O)N[C@@H](CC(N)=O)C(=O)N[C@@H](CCCCN)C(=O)N[C@@H](CO)C(=O)N[C@@H](CO)C(=O)N[C@@H](CO)C(=O)N[C@@H](CCCCN)C(=O)O [FWGFLGKLAMKAVPSLIGGNKSSSK] here?
**A.** 15 µM (≈ 39.4 µg/mL)

**Q.** What about the MIC (Candida albicans) of the same compound?
**A.** 12.5 µM (≈ 32.8 µg/mL)

**Q.** What about the MIC [15] of the same compound?
**A.** 21.4 µM (≈ 56.2 µg/mL)

**Q.** And the MIC (Candida glabrata)?
**A.** ≥ 50 µM

**Q.** And the MIC [16]?
**A.** 30.5 µM (≈ 80 µg/mL)

**Q.** And the MIC [17]?
**A.** 10 µM (≈ 26.2 µg/mL)

**Q.** What about the MIC [10] of the same compound?
**A.** 24 µM (≈ 63 µg/mL)

**Q.** And the MIC (Streptococcus agalactiae)?
**A.** 15 µM (≈ 39.4 µg/mL)

**Q.** Which results are given for CC[C@H](C)[C@H](NC(=O)CN)C(=O)N[C@@H](Cc1cnc[nH]1)C(=O)N[C@@H](C)C(=O)N[C@H](C(=O)N[C@@H](CC(C)C)C(=O)N[C@@H](CCCCN)C(=O)N[C@@H](Cc1ccc(O)cc1)C(=O)NCC(=O)N[C@@H](CCCCN)C(=O)N1CCC[C@H]1C(=O)N[C@@H](CO)C(N)=O)[C@@H](C)CC [GIHAILKYGKPS]?
**A.** MIC [18]: ≥ 50 µM; MIC [19]: 5 µM (≈ 6.41 µg/mL); MIC [9]: > 50 µM; MIC [20]: 30 µM (≈ 38.5 µg/mL); MIC [21]: ≥ 50 µM

**Q.** For CC[C@H](C)[C@H](NC(=O)[C@H](CC(C)C)NC(=O)[C@@H]1CCCN1C(=O)[C@H](Cc1ccccc1)NC(=O)[C@@H](N)Cc1ccccc1)C(=O)N[C@@H](C)C(=O)NCC(=O)N[C@@H](CC(C)C)C(=O)N[C@@H](C)C(=O)N[C@@H](C)C(=O)N[C@@H](CCCN=C(N)N)C(=O)N[C@@H](Cc1ccccc1)C(=O)N[C@@H](CC(C)C)C(=O)N1CCC[C@H]1C(=O)N[C@@H](CCCCN)C(=O)N[C@H](C(=O)N[C@@H](Cc1ccccc1)C(=O)N[C@H]1CSSC[C@@H](C(=O)O)NC(=O)[C@H](CCCN=C(N)N)NC(=O)[C@H](CCCCN)NC(=O)[C@H]([C@@H](C)O)NC(=O)[C@H]([C@@H](C)CC)NC(=O)[C@H](CO)NC1=O)[C@@H](C)CC [FFPLIAGLAARFLPKIFCSITKRC], which MIC [22] is on record?
**A.** 1.84 µM (≈ 5 µg/mL)

**Q.** And the MIC [23]?
**A.** 3.69 µM (≈ 9.99 µg/mL)

**Q.** And the MIC [24]?
**A.** 1.84 µM (≈ 5 µg/mL)

**Q.** And the MIC [25]?
**A.** 1.84 µM (≈ 5 µg/mL)

**Q.** And the MIC [26]?
**A.** 7.37 µM (≈ 20 µg/mL)

**Q.** What about the MIC (Escherichia coli IS37#) of the same compound?
**A.** 0.921 µM (≈ 2.5 µg/mL)

**Q.** And the MIC [27]?
**A.** 1.84 µM (≈ 5 µg/mL)

**Q.** And the MIC [28]?
**A.** 3.69 µM (≈ 9.99 µg/mL)

**Q.** What about the MIC [17] of the same compound?
**A.** 1.84 µM (≈ 5 µg/mL)

**Q.** And the MIC (Shigella dysenteriae)?
**A.** 3.69 µM (≈ 9.99 µg/mL)

**Q.** What about the MIC [10] of the same compound?
**A.** 0.368 µM (≈ 0.999 µg/mL)

**Q.** And the MIC [11]?
**A.** 0.921 µM (≈ 2.5 µg/mL)

**Q.** What about the MIC [29] of the same compound?
**A.** 0.921 µM (≈ 2.5 µg/mL)

**Q.** And the MIC (Escherichia coli IS117#)?
**A.** 3.69 µM (≈ 9.99 µg/mL)

**Q.** And the MIC [13]?
**A.** 3.69 µM (≈ 9.99 µg/mL)

**Q.** CC[C@H](C)[C@H](NC(=O)[C@H](CCCN=C(N)N)NC(=O)[C@H](CCCCN)NC(=O)[C@H](Cc1c[nH]c2ccccc12)NC(=O)[C@H](CCCN=C(N)N)NC(=O)[C@H](CCCCN)NC(=O)[C@H](Cc1c[nH]c2ccccc12)NC(=O)[C@@H](N)Cc1c[nH]c2ccccc12)C(=O)N[C@@H](CCCN=C(N)N)C(=O)N[C@@H](CCCN=C(N)N)C(=O)N[C@H](C(=O)N[C@@H](Cc1ccccc1)C(=O)N[C@@H](CCSC)C(=O)N[C@@H](CCSC)C(=O)N[C@H](C(=O)O)C(C)C)[C@@H](C)CC [WWKRWKRIRRIFMMV] was tested. Which MIC [30] did it give?
**A.** 1.82 µM (≈ 4 µg/mL)

**Q.** What about the MIC [31] of the same compound?
**A.** 3.65 µM (≈ 8 µg/mL)

**Q.** What does the source list for CC[C@H](C)[C@H](NC(=O)[C@@H]1CCCN1C(=O)[C@H](Cc1cnc[nH]1)NC(=O)[C@H](CCCCN)NC(=O)[C@@H]1CCCN1C(=O)[C@@H](N)CCCN=C(N)N)C(=O)N[C@@H](CCCCN)C(=O)N[C@@H](Cc1cnc[nH]1)C(=O)N[C@@H](CCC(N)=O)C(=O)NCC(=O)N[C@@H](CC(C)C)C(=O)N1CCC[C@H]1C(=O)N[C@@H](CCC(N)=O)C(=O)N[C@@H](CCC(=O)O)C(=O)N[C@H](C(=O)N[C@@H](CC(C)C)C(=O)N[C@@H](CC(N)=O)C(=O)N[C@@H](CCC(=O)O)C(=O)N[C@@H](CC(N)=O)C(=O)N[C@@H](CC(C)C)C(=O)N[C@@H](CC(C)C)C(=O)N[C@@H](CCCN=C(N)N)C(=O)N[C@@H](Cc1ccccc1)C(=O)N[C@@H](Cc1ccccc1)C(=O)O)C(C)C [RPKHPIKHQGLPQEVLNENLLRFF]?
**A.** MIC [32]: ≥ 47.2 µM; MIC [33]: 23.6 µM (≈ 68.8 µg/mL); MIC [10]: 189 µM (≈ 550 µg/mL)
